Entries after “also recorded” stand apart in the source; their conditions may differ.
Tests used:
[1] = test system: sulfate reducing bacteria (SRB); assay: Biocidal effectiveness on sulfate reducing bacteria in spiked frac pond water, serial dilution counts over 180 days with challenges; assay type: cell-based; details: up to 180 days contact time; challenges at 14, 28 and 129 days
Method: (§1) In this example, the biocidal effectiveness on sulfate reducing bacteria (SRB) and acid producing bacteria (AB) for biocide formulations containing CB Thione and WB Thione to Glut and THPS was examined.
(§2) A one gallon sample was separated from a five gallon sample of frac pond water for these studies. The frac pond water sample included SRB and AB. Ten mL of a 10^9 cfu/mL inoculum of SRB grown in anaerobic API broth containing an O2 scavenger and 10 mL of a 10^9 cfu/mL inoculum of AB grown in anaerobic phenol red (anPR) broth containing an O2 scavenger were added to the one gallon frac pond water sample, mixed well and allowed to incubate for a period of time sufficient to achieve a desired number of SRB and AB. All broth media for inoculum and serial dilution counts in this study was made at 4% salinity to match the salinity of the original frac pond water measured by total dissolved solids testing. To increase nutrient value and to emulate on-site friction reducing additives, a 30 weight % acrylic acid, 70% acrylamide copolymer was added to the inoculated gallon of frac pond water sample at 300 ppm and then referred to as the spiked frac pond water sample. The spiked sample was then divided into 99.0 g aliquots for testing the effect of various biocides at various concentrations on the SRB and AB over a 180 day contact time. One spiked aliquot would serve as the control sample to which no biocide would be added. Challenges were made to all aliquots using 0.5 mL of 10^8 SRB and 0.5 mL, of 10^8 AB at 14, 28, and 129 days contact time.
(§3) The biocides included a 20% water based Thione (WB Thione), a 24% caustic based Thione (CB Thione), a 25% Glut, and a 35% THPS. Stock biocide solutions of various concentrations were made from these biocides as described below.
(§4) The WB Thione stock solutions were prepared by adding 3.0 g of the biocide to 17.0 g of sterile distilled water to form an intermediate solution, followed by combining each intermediate solution with water in the accounts shown in Table 1 below to make the descending concentrations as shown in Table 1.
(§5) The CB Thione stock solutions were prepared by adding 3.0 g of the biocide to 17.0 g of sterile distilled water to form an intermediate solution, followed by combining each intermediate solution with water in the amounts shown in Table 2 below to make the descending concentrations as shown in Table 2.
(§6) The Glut stock solutions were prepared by adding 1.0 g biocide to 19.0 g of sterile distilled water to form an intermediate solution, followed by combining each intermediate solution with water in the amounts shown in Table 3 below to make the descending concentrations as shown in Table 3.
(§7) The THPS stock solutions were prepared by adding 1.0 g of the biocide to 19.0 g of sterile distilled water to form an intermediate solution, followed by combining each intermediate solution with water in the amounts shown in Table 4 below to make the descending concentrations as shown in Table 4.
(§8) Next, 1 g of each biocide stock solution was added to the appropriately labeled 99.0 g aliquot. Also, 1.0 g of sterile water was added to the control aliquot. The concentrations of the biocides present in each aliquot are provided below in Table 5.
(§9) The aliquots were then incubated at room temperature in the dark for the entire study, i.e., 6 months. […] Using sterile syringes, this testing was performed by serial diluting the aliquots into sealed 9.0 mL anaerobic API broth and anaerobic PR broth bottles, both media containing an O2 scavenger, in the appropriate labeled set of SRB bottles (6 for each aliquot) mid AB bottles (6 for each aliquot) until a color change occurred, indicating the log quantity of organisms present in each aliquot.

[2] = test system: acid producing bacteria (AB); assay: Biocidal effectiveness on acid producing bacteria in spiked frac pond water, serial dilution counts over 180 days with challenges; assay type: cell-based; details: up to 180 days contact time; challenges at 14, 28 and 129 days
Method: as §1, §2, §3, §4, §5, §6, §7, §8, §9

CN1CSC(=S)N(C)C1 [Thione, 3,5-dimethyl-1,3,5-thiadiazinane-2-thione]
control of SRB in frac pond water (summary in words) [1]: much more effective at inhibiting SRB and AB growth in frac water than the Glut and THPS treatments; also recorded: exceptional control over both the short and long term for SRB through 3 substantial challenges
control of AB in frac pond water (summary in words) [2]: much more effective at inhibiting SRB and AB growth in frac water than the Glut and THPS treatments
